Test results published in patent US20240013855A1, “METHOD OF SEARCHING FOR SPECIFIC-BINDING FUNCTIONAL SUBSTANCES, SPECIFIC-BINDING FUNCTIONAL SUBSTANCE SEARCH SYSTEM, SPECIFIC-BINDING FUNCTIONAL SUBSTANCE SEARCH METHOD, AND PROGRAM” (SHINSHU UNIVERSITY, priority 2020, published 2024).

How the values were obtained:
[1] = target: ABL in HEK293 cells (Homo sapiens, UniProt P00519); test: Western blotting detection of ABL in cultured cell line HEK293; conditions: HEK293 cultured for 4 days in the presence of compound
Procedure: Additionally, a western blotting detection using the cultured cell line HEK293 was conducted. […] Using the SDS-PAGE and western blotting methods, ABL and GAPDH were detected using antibodies specific to the two.

[2] = target: kinase ABL (Homo sapiens, UniProt P00519); test: Kinase ABL inhibitory activity with and without heating/cooling; assay type: biochemical
Procedure: (§1) Here, inhibitory effects on other kinases were studied.
(§2) As a result, for the kinase DYRK1A, the upper-limit temperature of 67.0° C. and lower-limit temperature of 57.5° C. were calculated as temperature conditions based on the measured data, as shown in FIG. 16. Consequently, the setpoint heating temperature for the temperature jump test was set to 62.0° C. […] Consequently, the setpoint heating temperature for the temperature jump test was set to 53.7° C. Also, for the kinase SRC, the upper-limit temperature of 59.6° C. and lower-limit temperature of 51.4° C. were calculated as temperature conditions based on the measured data, as shown in FIG. 18. Consequently, the setpoint heating temperature for the temperature jump test was set to 55.5° C. Also, for the kinase ABL, the upper-limit temperature of 55.6° C. and lower-limit temperature of 47.3° C. were calculated as temperature conditions based on the measured data, as shown in FIG. 19. Consequently, the setpoint heating temperature for the temperature jump test was set to 52.0° C.

[3] = target: kinase SRC (Homo sapiens, UniProt P12931); test: Kinase SRC inhibitory activity with and without heating/cooling; assay type: biochemical; conditions: for inhibitory activity on SRC compared with DYRK1A: temperature jump; for inhibition of kinase SRC: with and without heating/cooling, IC80 concentration for temperature-jump inhibition of DYRK1A
Procedure: as §1, §2

[4] = target: Kinase DYRK1A (Homo sapiens, UniProt Q13627); test: Kinase DYRK1A enzymatic activity (Kinase Glo, remaining ATP) with or without heating/quick cooling (temperature jump); assay type: biochemical; conditions: for inhibitory effect on the complete protein that was not heated/cooled: no heating/cooling (conventional evaluation); for inhibitory effect specific to the folding intermediate undergoing heating/cooling: with versus without heating/cooling (temperature jump)
Procedure: Lastly, in the embodiment, the effect of the presence of the candidate functional substance in influencing the function of the protein is determined (step C). For example, what is determined is, such as, inhibitory effect when searching for an inhibitor, accelerative effect when searching for an accelerator, coagulative effect when searching for a coagulant, stabilizing effect when searching for a stabilizer, or activating effect when searching for an activator, as a functional substance. […] As an example, in this process a determination can be made by using the Promega Kinase Glo assay kit, etc., to quantify the amount of ATP remaining in the tube, and thereby measuring its enzymatic activity. It should be noted that the determination of inhibitory effect is not limited to one based on use of the aforementioned kit, etc.
• Kinase DYRK1A protein mass: 25 ng • DMSO concentration: 0.3% in 25 μL • ATP/substrate peptide (DYRKtide peptide: amino-acid sequence […]) concentration: 5 μM each • Volume at enzymatic reaction: 25 μL • Volume in thermal cycler (Biometra TAdvanced Model 96SG): 15 μL • Enzymatic reaction period: 2 hrs.
• 1. The DYRK1A protein, inhibitors (solvent DMSO alone was added in the case of “Inhibitor 0 μM”), buffer (final concentrations: 5 mM MOPS pH7.2, 2.5 mM beta-glycerol-phosphate, 5 mM MgCl2, 1 mM EGTA, 0.4 mM EDTA, 0.05 mM DTT) and ultrapure water were mixed in tubes placed in a white 96-well PCR plate. [Volume: 15 μL, DYRK1A protein mass: 25 ng, inhibitor concentration: 30 μM] • 2. The plate was set in a thermal cycler and heated for 20 seconds at each heating temperature, and then cooled for 10 seconds at 3° C. [Rate of heating/rate of cooling both 8° C./sec.] • 3. Upon completion of cooling, it was removed immediately and 10 μL of ATP/substrate peptide mixture solution was added. [Volume: 15 μL→25 μL, ATP/substrate peptide concentration 5 μM] • 4. It was set in the thermal cycler again to cause enzymatic reaction for 2 hours […] at 20° C. • 5. It was picked up from the thermal cycler and 25 μL of Kinase Glo reaction solution was added, and from the resulting luminescence value, the remaining amount of ATP was measured to evaluate the enzymatic activity. [Volume: 25 μL 50 μL]

[5] = target: kinase DYRK1B (Homo sapiens, UniProt Q9Y463); test: Kinase DYRK1B inhibitory activity with and without heating/cooling; assay type: biochemical; conditions: for inhibitory activity without heating/cooling: complete protein not heated/cooled; for inhibitory effect specific to the folding intermediate undergoing heating/cooling: with versus without heating/cooling
Procedure: Consequently, the setpoint heating temperature for the temperature jump test was set to 62.0° C. […] Consequently, the setpoint heating temperature for the temperature jump test was set to 52.0° C.

[6] = target: T1, monoamine oxidase MAO-A (Homo sapiens, UniProt P21397); test: Small-scale screening on monoamine oxidase MAO-A with temperature jump (MAO-A-Glo Assay); assay type: biochemical; conditions: temperature jump 69.2° C; plant-derived compound library (1 to 34)
T1 sequence (P21397 1-527): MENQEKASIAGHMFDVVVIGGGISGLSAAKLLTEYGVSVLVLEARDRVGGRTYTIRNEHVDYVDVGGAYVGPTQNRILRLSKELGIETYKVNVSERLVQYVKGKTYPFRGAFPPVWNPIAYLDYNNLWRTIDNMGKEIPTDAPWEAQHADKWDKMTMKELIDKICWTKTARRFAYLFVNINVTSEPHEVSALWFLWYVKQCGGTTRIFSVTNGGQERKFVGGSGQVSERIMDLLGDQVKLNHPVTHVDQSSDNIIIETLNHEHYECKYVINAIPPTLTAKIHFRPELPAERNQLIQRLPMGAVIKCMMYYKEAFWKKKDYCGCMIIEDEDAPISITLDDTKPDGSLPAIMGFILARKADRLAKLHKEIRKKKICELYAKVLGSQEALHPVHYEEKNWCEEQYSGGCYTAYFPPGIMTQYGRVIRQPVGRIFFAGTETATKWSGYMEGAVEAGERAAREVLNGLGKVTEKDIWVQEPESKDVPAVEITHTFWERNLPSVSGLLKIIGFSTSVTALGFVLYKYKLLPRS
Procedure: Also, the monoamine oxidase MAO-A was studied as a way to set the upper-limit temperatures and lower-limit temperatures in FIG. 11 to FIG. 13. FIG. 20 is a figure showing the study results on upper-limit temperature and lower-limit temperature for the monoamine oxidase MAO-A. It should be noted that the test was conducted according to the product manual for Promega's MAO-A-Glo™ Assay Systems. It should be noted that the relative enzymatic activity was calculated based on the enzymatic activity at 40° C. being 1.0.
As a result, for the […] MAO-A, the upper-limit temperature of 76.4° C. and lower-limit temperature of 62.0° C. were calculated as temperature conditions based on the measured data, as shown in FIG. 20. Consequently, the setpoint heating temperature for the temperature jump test was set to 69.2° C. FIG. 21 is a figure showing the small-scale inhibitor screening results with respect to the monoamine oxidase MAO-A.

[7] = target: T2, DYRK1A in HEK293 cells (Homo sapiens, UniProt Q13627); test: Western blotting detection of DYRK1A in cultured cell line HEK293; assay type: cell-based; conditions: HEK293 cultured for 4 days in the presence of compound
T2 construct: endogenous in cells; host or cells: HEK293
Procedure: To be more specific, a study was conducted by western blotting using the cultured cell line HEK293.

kinase SRC, sequence (P12931 whole entry): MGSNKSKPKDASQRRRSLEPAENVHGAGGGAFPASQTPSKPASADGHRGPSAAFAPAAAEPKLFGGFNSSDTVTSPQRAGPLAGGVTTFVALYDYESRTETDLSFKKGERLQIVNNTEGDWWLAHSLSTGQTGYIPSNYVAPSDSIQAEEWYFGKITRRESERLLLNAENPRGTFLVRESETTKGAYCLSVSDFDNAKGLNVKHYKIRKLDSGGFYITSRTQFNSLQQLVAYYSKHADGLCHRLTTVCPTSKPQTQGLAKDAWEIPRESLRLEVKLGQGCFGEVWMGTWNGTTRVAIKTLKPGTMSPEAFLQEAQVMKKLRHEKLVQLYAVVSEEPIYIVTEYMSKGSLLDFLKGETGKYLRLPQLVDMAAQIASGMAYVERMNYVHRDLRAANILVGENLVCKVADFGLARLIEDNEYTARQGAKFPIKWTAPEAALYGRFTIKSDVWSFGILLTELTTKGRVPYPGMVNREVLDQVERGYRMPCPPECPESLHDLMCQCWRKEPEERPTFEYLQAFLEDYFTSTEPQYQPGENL
kinase DYRK1B, sequence (Q9Y463 whole entry): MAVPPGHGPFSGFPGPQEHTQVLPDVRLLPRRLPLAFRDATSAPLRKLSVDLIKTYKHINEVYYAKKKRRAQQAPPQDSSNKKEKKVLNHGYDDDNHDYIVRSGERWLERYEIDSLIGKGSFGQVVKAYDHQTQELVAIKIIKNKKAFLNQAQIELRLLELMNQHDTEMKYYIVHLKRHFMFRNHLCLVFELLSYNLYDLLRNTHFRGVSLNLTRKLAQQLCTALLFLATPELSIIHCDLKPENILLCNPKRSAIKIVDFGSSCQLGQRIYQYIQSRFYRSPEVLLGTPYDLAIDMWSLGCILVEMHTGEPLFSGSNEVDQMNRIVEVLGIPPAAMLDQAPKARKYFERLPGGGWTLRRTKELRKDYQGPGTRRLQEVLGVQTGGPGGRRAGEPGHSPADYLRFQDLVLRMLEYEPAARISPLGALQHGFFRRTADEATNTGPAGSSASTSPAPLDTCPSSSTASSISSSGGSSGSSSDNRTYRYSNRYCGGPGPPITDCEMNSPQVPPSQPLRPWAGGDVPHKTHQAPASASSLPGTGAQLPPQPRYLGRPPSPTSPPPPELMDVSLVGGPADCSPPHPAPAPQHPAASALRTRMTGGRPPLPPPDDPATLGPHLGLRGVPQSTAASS
kinase ABL, sequence (P00519 whole entry): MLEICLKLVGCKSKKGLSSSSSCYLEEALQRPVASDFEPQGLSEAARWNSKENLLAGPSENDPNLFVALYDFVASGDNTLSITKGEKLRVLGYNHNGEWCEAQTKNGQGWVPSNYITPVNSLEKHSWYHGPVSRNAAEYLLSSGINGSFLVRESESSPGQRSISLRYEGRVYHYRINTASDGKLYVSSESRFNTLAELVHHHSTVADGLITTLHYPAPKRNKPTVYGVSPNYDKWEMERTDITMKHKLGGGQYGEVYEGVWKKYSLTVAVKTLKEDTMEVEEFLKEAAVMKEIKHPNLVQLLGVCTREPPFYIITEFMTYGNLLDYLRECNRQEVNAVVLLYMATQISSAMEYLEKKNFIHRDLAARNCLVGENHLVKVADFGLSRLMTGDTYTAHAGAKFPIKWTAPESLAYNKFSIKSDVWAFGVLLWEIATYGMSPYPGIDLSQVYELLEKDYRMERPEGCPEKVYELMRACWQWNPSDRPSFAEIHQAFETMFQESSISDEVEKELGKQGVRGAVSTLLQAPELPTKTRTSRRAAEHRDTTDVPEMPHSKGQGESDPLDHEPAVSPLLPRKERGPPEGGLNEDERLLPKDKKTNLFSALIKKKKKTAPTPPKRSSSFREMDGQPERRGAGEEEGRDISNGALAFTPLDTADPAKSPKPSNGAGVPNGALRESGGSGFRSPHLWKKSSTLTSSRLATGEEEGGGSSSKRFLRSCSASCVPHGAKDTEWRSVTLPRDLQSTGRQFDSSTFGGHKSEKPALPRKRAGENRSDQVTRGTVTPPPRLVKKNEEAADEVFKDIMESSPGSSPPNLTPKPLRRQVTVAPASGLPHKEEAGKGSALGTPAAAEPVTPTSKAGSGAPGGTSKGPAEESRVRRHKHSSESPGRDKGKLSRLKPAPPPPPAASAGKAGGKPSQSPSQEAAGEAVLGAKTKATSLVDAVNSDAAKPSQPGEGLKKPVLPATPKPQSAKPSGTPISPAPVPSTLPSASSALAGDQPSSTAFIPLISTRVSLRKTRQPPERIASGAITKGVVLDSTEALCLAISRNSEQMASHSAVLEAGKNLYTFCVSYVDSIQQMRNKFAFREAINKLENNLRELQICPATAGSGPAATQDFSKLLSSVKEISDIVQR
ABL in HEK293 cells, sequence (P00519 whole entry): as above

| SMILES | inhibitory activity on SRC compared with DYRK1A [3] | inhibition of kinase SRC [3] | inhibitory effect on the complete protein that was not heated/cooled [4] | inhibitory effect specific to the folding intermediate undergoing heating/cooling [4] | inhibitory activity without heating/cooling [5] | inhibitory effect specific to the folding intermediate undergoing heating/cooling [5] | other results |
| --- | --- | --- | --- | --- | --- | --- | --- |
| COc1ccc(/C=C2\SC(=S)NC2=O)cc1C#C[Si](C)(C)C [FINDY] | weaker than those on DYRK1A | inhibited the kinase SRC in a temperature jump-dependent manner |  |  |  |  | ABL band in western blotting (activity to decompose/remove ABL) [1]: became fainter; inhibitory activity on ABL compared with DYRK1A ([2]; temperature jump): stronger than that on DYRK1A; inhibition of kinase ABL ([2]; with and without heating/cooling): strongly inhibited the kinase ABL in a temperature jump-dependent manner |
| COc1ccc2c(c1)[nH]c1c(C)nccc12 [Harmine] |  |  | exhibited an inhibitory effect | did not exhibit a specific inhibitory effect | exhibited an inhibitory effect | did not exhibit a specific inhibitory effect |  |
| CCOc1cc(/C=C2\SC(=S)NC2=O)ccc1O [RD0392] |  |  | exhibited an inhibitory effect | did not exhibit a specific inhibitory effect | exhibited an inhibitory effect | did not exhibit a specific inhibitory effect |  |
| COc1ccc(/C=C2\SC(=S)NC2=O)cc1C#C[Si](C)(c1ccccc1)c1ccccc1 [compound 168] | weaker than those on DYRK1A | inhibited the kinase SRC in a temperature jump-dependent manner |  |  |  |  |  |
| O=C(O[C@H]1Cc2ccccc2C[C@H]1OC(=O)c1cc(O)c(O)c(O)c1)c1cc(O)c(O)c(O)c1 [compound No. 2] |  |  |  | exhibited a specific inhibitory effect only with the folding intermediate |  |  | temperature jump-dependent inhibitory activity on MAO-A [6]: temperature jump-dependent inhibitory activity was confirmed; DYRK1A band in western blotting (activity to decompose/remove DYRK1A) [7]: became fainter |
